Columns and labels:
[1] = system: PC12 cells; assay: Quantification of global DNA methylation; assay type: cell-based, rat; details: second day of culture
[2] = system: MAP-2 protein expression in PC12 cells; assay: Western blot analysis of microtubule-associated protein-2 (MAP-2) in PC12 cells; assay type: cell-based, rat; details: 14 days
[3] = system: Schwann cells; assay: Schwann cell migration, transwell model; assay type: cell-based; details: 4 hr migration, compared to 4, 100 and 200 mg/L folate
[4] = system: Schwann cells; assay: Quantification of global DNA methylation; assay type: cell-based; details: second day of culture
[5] = system: PC-12 cells; assay: PC12 cell neurite outgrowth assay; assay type: cell-based, rat
[6] = system: Schwann cells; assay: Schwann cell migration, microchannel-based migration assay (live cell imaging); details: left reservoir 4 mg/L folate, right reservoir 50 mg/L folate; channel width 200 μm

SMILES: Nc1nc2ncc(CNc3ccc(C(=O)N[C@@H](CCC(=O)O)C(=O)O)cc3)nc2c(=O)[nH]1 [folic acid]
- folate concentration with highest global DNA methylation [1]: 50 mg/L
- MAP-2 protein expression relative to control medium (1.3 mg/L folate) ([2]; 50 mg/L folate, in the presence of NGF (50 ng/mL)): 2.56 folds
- MAP-2 protein expression relative to control sample (1.3 mg/L folate) ([2]; 50 and 100 mg/L folate, in the absence of NGF): 2.22-2.30 folds
- folate concentration of medium toward which the highest number of Schwann cells migrated [3]: 50 mg/L
- folate concentration with highest global DNA methylation [4]: 50 mg/L
- neurite outgrowth (average neurite length) ([5]; 50-100 mg/L folate with 50 ng/mL NGF, day 7, control medium 1.3 mg/L folate <100 μm): > 150 μm
- folic acid concentration with highest neurite outgrowth ([5]; day 3 of culture, neural differentiation medium with 5 ng/ml neural growth factor): 50 mg/L
- PC-12 neurite outgrowth rate ([5]; folic acid supplemented medium): promote PC-12 neurite outgrowth rate in a dose-dependent manner
- optimal folic acid supplement concentration for promoting PC-12 differentiation and neurite outgrowth ([5]; within the concentrations investigated): 50 to 100 mg/L
- Schwann cell migration direction in microchannels [6]: migration of Schwann cell from low folate medium to high folate medium
